Results taken from publication PMC6199744, “Development of Chemical Proteomics for the Folateome and Analysis of the Kinetoplastid Folateome” (ACS Infectious Diseases, 2018).
Like-named read-outs stand apart in the source and are kept apart here.

Key:
Format in all cases: binding
[1] = biological target: T1, HeLa cell extract proteins (Homo sapiens, UniProt Q02218)
T1 construct: endogenous in cells; host or cells: HeLa cell extract
T1 sequence (Q02218 41-1023): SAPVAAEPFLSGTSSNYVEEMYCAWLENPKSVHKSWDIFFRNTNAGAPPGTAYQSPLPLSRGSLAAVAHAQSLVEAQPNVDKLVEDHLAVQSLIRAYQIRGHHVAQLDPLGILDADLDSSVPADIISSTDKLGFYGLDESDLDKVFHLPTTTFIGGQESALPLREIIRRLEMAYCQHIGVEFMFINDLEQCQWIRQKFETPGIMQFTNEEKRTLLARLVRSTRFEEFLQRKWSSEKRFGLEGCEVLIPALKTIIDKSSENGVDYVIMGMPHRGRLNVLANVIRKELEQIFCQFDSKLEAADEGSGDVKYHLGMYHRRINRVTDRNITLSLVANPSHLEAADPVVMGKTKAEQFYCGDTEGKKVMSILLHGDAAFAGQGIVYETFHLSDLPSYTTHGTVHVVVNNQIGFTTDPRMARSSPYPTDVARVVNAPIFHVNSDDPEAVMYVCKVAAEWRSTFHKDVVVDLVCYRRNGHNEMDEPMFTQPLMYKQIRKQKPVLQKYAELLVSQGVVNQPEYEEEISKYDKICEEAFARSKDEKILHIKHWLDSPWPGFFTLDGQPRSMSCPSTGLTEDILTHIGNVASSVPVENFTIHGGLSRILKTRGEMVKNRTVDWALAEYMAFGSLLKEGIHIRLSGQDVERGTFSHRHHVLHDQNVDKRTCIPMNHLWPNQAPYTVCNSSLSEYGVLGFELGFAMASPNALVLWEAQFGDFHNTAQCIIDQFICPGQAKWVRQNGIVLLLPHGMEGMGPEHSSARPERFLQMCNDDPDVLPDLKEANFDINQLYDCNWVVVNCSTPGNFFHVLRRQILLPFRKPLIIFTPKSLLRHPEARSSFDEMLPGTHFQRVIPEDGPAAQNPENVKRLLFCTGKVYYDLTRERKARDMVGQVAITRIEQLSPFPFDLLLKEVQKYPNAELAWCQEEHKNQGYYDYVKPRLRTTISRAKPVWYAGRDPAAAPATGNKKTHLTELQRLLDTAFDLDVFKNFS

[2] = biological target: T2, HeLa cell extract proteins (Homo sapiens, UniProt P50454)
T2 construct: endogenous in cells; host or cells: HeLa cell extract
T2 sequence (P50454 19-418): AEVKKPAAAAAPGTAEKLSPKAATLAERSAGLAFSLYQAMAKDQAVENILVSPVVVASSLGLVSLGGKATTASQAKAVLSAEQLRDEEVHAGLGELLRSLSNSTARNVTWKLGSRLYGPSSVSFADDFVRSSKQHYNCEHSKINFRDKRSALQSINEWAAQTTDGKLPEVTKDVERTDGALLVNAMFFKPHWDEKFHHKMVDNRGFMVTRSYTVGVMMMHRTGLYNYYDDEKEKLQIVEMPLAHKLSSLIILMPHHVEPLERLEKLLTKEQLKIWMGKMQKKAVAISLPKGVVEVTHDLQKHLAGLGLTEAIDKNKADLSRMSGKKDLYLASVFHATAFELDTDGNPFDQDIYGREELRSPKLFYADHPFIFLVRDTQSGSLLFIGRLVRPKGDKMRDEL

[3] = biological target: T3, HeLa cell extract proteins (Homo sapiens, UniProt Q12769)
T3 construct: endogenous in cells; host or cells: HeLa cell extract
T3 sequence (Q12769 1-1436): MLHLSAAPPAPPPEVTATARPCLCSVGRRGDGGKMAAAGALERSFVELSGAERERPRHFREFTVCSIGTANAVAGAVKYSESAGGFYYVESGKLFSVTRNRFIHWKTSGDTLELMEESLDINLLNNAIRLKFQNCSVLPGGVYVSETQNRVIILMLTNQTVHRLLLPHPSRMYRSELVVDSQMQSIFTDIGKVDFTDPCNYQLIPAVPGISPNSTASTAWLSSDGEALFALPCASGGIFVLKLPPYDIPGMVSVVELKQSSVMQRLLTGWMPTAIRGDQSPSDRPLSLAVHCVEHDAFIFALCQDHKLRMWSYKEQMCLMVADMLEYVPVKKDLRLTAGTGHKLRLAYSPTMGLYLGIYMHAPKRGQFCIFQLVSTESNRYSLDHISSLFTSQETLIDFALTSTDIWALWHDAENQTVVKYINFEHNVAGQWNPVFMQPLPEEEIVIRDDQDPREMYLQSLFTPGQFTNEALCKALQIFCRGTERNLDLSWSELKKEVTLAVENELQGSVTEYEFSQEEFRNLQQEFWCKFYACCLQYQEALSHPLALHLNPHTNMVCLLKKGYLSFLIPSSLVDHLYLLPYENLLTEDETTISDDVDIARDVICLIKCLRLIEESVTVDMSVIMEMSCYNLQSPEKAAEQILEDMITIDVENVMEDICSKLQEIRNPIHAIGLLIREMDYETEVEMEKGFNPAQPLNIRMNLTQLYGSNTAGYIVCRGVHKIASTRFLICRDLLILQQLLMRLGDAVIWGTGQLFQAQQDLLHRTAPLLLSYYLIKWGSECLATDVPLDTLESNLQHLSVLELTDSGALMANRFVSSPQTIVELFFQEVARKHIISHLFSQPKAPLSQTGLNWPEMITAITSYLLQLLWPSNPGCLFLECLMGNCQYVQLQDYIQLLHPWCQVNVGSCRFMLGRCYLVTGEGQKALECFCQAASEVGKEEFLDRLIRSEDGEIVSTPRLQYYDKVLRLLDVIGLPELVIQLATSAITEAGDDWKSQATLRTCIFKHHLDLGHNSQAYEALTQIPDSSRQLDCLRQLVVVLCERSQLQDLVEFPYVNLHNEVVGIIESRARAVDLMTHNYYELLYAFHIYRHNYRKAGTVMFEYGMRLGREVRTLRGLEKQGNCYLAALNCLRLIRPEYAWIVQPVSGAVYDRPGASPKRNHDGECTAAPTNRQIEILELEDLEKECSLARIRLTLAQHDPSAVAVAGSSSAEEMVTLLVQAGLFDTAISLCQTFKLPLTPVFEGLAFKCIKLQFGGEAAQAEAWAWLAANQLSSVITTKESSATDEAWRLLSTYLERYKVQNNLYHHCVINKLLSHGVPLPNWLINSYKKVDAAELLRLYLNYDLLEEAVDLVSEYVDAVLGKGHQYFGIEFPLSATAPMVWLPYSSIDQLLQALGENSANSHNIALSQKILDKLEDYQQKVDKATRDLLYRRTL

| SMILES | fold changes relative to vehicle control ([1]; HeLa, captured protein OGDH) | fold changes relative to vehicle control ([2]; HeLa, protein SERPINH1) | fold changes relative to vehicle control ([3]; HeLa, captured protein NUP160) | fold changes relative to vehicle control ([1]; protein OGDH, HeLa) | fold changes relative to vehicle control ([2]; protein SERPINH1, HeLa) | fold changes relative to vehicle control ([3]; HeLa, protein NUP160) | other results |
| --- | --- | --- | --- | --- | --- | --- | --- |
| Nc1nc2c(c(=O)[nH]1)N(C=O)C(CNc1ccc(C(=O)N[C@@H](CCC(=O)O)C(=O)O)cc1)CN2 (stereo partly drawn) [LEU, leucovorin] | 1.13 | 0.99 | 1.02 |  |  |  |  |
| Nc1nc2[nH]cc(CCc3ccc(C(=O)N[C@@H](CCC(=O)O)C(=O)O)cc3)c2c(=O)[nH]1 [PTX, pemetrexed] |  |  |  |  |  |  | fold changes relative to vehicle control [1]: 0.9; fold changes relative to vehicle control [2]: 1.08; fold changes relative to vehicle control [3]: 1.07 |
| CCCCCCOc1ccc(Cc2cnc(N)nc2N)cc1 [compound 1] |  |  |  | 1.05 | 1.07 | 1.03 |  |
| CCCCCCOc1cccc(Cc2cnc(N)nc2N)c1 [compound 2] |  |  |  | 1.26 | 1.61 | 1.11 |  |
| Nc1nc2cccc(-c3ccccc3)c2n1Cc1ccc(Cl)c(Cl)c1 [compound 3] |  |  |  | 1.03 | 0.93 | 1.2 |  |
| NCCOCCOCC(=O)Nc1nc2ncc(CNc3ccc(C(=O)NC(CCC(=O)O)C(=O)O)cc3)nc2c(=O)[nH]1 (stereo not drawn) [compound 6] | 1.02 | 1.21 | 1.14 |  |  |  |  |
| NCCCNc1ccc(C(=O)NC(CCC(=O)O)C(=O)O)cc1 (stereo not drawn) [compound 7] | 1.04 | 0.98 | 1.12 |  |  |  |  |
